The record followed here is ChEMBL document CHEMBL5390316, “Enniatin A Analogues as Novel Hsp90 Inhibitors that Modulate Triple-Negative Breast Cancer” (ACS Med Chem Lett, 2023).

Each structure is given as a SMILES string. Calls of active or inactive are those of the source. The calls are words filed in the database; no cut-off is given here.

Test [1] deals with Hs-578T. Nature of the test: Antiproliferative activity against human Hs-578T cells assessed as reduction in cell viability incubated for 48 hrs by MTT assay. It is filed as functional, cell-based.
Test [2] relates to E0771. Description: In vivo inhibition of HSP90 in mouse E0771 cells implanted in C57BL/6 mouse at 10 mg/kg, ip administered every 48 hrs for 3 weeks by Western blot analysis. It is filed as functional, organism-based.
For test [3], the system named is Hs-578T. Description: Induction of heat shock response in human Hs-578T cells assessed as change in Hsp40 level at 5 uM incubated for 24 hrs by Western blot analysis. The class given is functional, cell-based. (In western blotting, separated proteins are transferred to a membrane and probed.)
The test system of test [4] is E0771. Nature of the test: In vivo inhibition of HSP90 in mouse E0771 cells implanted in C57BL/6 mouse assessed as change in CDK4 at 10 mg/kg, ip administered every 48 hrs for 3 weeks by Western blot analysis. The class given is functional, organism-based.
Test [5] concerns E0771. Nature of the test: In vivo inhibition of HSP90 in mouse E0771 cells implanted in C57BL/6 mouse assessed as change in ILK at 10 mg/kg, ip administered every 48 hrs for 3 weeks by Western blot analysis. It is filed as functional, organism-based.
In test [6] the test system is E0771. Description: In vivo inhibition of HSP90 in mouse E0771 cells implanted in C57BL/6 mouse assessed as change in p-Akt/Akt ratio at 10 mg/kg, ip administered every 48 hrs for 3 weeks by Western blot analysis. It is filed as functional, organism-based.
Test [7] relates to EO771. Description: Induction of heat shock response in mouse EO771 cells assessed as change in Hsp70 level at 7.5 uM incubated for 24 hrs by Western blot analysis. It is filed as functional, cell-based.
Test [8] relates to E0771. Nature of the test: In vivo induction of heat shock response in mouse E0771 cells implanted in C57BL/6 mouse assessed as increased Hsp40 level at 10 mg/kg, ip administered every 48 hrs for 3 weeks by Western blot analysis. The class given is functional, organism-based.
Test [9] relates to E0771. Description: In vivo induction of heat shock response in mouse E0771 cells implanted in C57BL/6 mouse assessed as increased Hsp70 level at 10 mg/kg, ip administered every 48 hrs for 3 weeks by Western blot analysis. It is filed as functional, organism-based.
Test [10] concerns the target Heat shock protein HSP90 (Homo sapiens) (UniProt P07900+P08238). Nature of the test: Inhibition of HSP90 in human Hs-578T cells assessed as degradation of CDK4 at 5 uM incubated for 24 hrs by Western blot analysis. It is filed as cell-based.
The test system of test [11] is EO771. Description: Antiproliferative activity against mouse E0771 cells implanted in C57BL/6 mouse assessed as inhibition of tumor volume at 10 mg/kg, ip administered every 48 hrs for 3 weeks. The class given is functional, organism-based.
In test [12] the test system is 4T1. Nature of the test: Induction of heat shock response in mouse 4T1 cells assessed as change in Hsp70 level at 7.5 uM incubated for 24 hrs by Western blot analysis. It is filed as functional, cell-based.
Test [13] relates to EO771. Nature of the test: Inhibition of HSP90 in mouse EO771 cells assessed as change in ILK level at 7.5 uM incubated for 24 hrs by Western blot analysis. It is filed as cell-based.
The test system of test [14] is EO771. Description: Inhibition of HSP90 in mouse EO771 cells assessed as change in CDK4 level at 7.5 uM incubated for 24 hrs by Western blot analysis. It is filed as cell-based.
In test [15] the test system is Hs-578T. Description: Induction of heat shock response in human Hs-578T cells assessed as change in Hsp70 level at 5 uM incubated for 24 hrs by Western blot analysis. It is filed as functional, cell-based.
Test [16] concerns 4T1. Description: Inhibition of HSP90 in mouse 4T1 cells assessed as reduction in CDK4 level at 7.5 uM incubated for 24 hrs by Western blot analysis. It is filed as cell-based.
The subject of test [17] is 4T1. Nature of the test: Inhibition of HSP90 in mouse 4T1 cells assessed as reduction in ILK level at 7.5 uM incubated for 24 hrs by Western blot analysis. The class given is cell-based.
The test system of test [18] is Hs-578T. Description: Induction of heat shock response in human Hs-578T cells assessed as reduction in Hsp40 level at 1 uM incubated for 24 hrs by Western blot analysis. The class given is functional, cell-based.
Test [19] concerns Hs-578T. Description: Induction of heat shock response in human Hs-578T cells assessed as reduction in Hsp70 level at 1 uM incubated for 24 hrs by Western blot analysis. It is filed as functional, cell-based.

As a reminder, the IC50 is the concentration that gives 50% inhibition. As to `CC[C@H](C)[C@H]1C(=O)O[C@H](C(C)C)C(=O)N(C)[C@@H]([C@@H](C)CC)C(=O)O[C@H](C(C)C)C(=O)N(C)[C@@H]([C@@H](C)CC)C(=O)O[C@H](CCc2ccccc2)C(=O)N1C`, the IC50 with Hs-578T [1] worked out at 8.1 µM.
As to `CC[C@H](C)[C@H]1C(=O)O[C@H](C(C)C)C(=O)N(C)[C@@H]([C@@H](C)CC)C(=O)O[C@H](C(C)C)C(=O)N(C)[C@@H]([C@@H](C)CC)C(=O)O[C@H](Cc2ccccc2)C(=O)N1C`, the inhibition result in the test with E0771 [2], in the test with EO771 [13] and with EO771 [14] was “inactive” in each case. The result with Hs-578T [3], in the test with EO771 [7], with 4T1 [12] and with Hs-578T [15] was inactive. Further, the inhibition result (with E0771 [4]; with E0771 [5]; with E0771 [6]; in [10]; in the test on 4T1 [16]; in the test on 4T1 [17]) was “Active” each time. In addition, the IC50 in the test on Hs-578T [1] was found to be 4.36 µM. Also, the outcome in the test with E0771 [8], with E0771 [9] and with EO771 [11] was Active.
In the case of `CC[C@H](C)[C@H]1C(=O)O[C@H](C(C)C)C(=O)N(C)[C@@H]([C@@H](C)CC)C(=O)O[C@H](C(C)C)C(=O)N(C)[C@@H]([C@@H](C)CC)C(=O)O[C@H](Cc2ccc(C)cc2)C(=O)N1C`, the IC50 in the test on Hs-578T [1] is 8.34 µM.
For `CC[C@H](C)[C@H]1C(=O)O[C@H](C(C)C)C(=O)N(C)[C@@H]([C@@H](C)CC)C(=O)O[C@H](C(C)C)C(=O)N(C)CC(=O)O[C@H](C(C)C)C(=O)N1C`, in the test on Hs-578T [1], the IC50 stood at 16.7 µM.
Turning to `CC[C@H](C)[C@H]1C(=O)O[C@H](C(C)C)C(=O)N(C)[C@@H](C)C(=O)O[C@H](C(C)C)C(=O)N(C)[C@@H]([C@@H](C)CC)C(=O)O[C@H](C(C)C)C(=O)N1C`, in the test with Hs-578T [1], the IC50 stood at 16.2 µM.
Turning to `CC[C@H](C)[C@H]1C(=O)O[C@H](C(C)C)C(=O)N(C)[C@@H]([C@@H](C)CC)C(=O)O[C@H](C(C)C)C(=O)N(C)[C@@H]([C@@H](C)CC)C(=O)O[C@H](Cc2ccc3ccccc3c2)C(=O)N1C`, the IC50 in the test on Hs-578T [1] turned out to be 8 µM.
For the compound `CC[C@H](C)[C@H]1C(=O)O[C@H](C(C)C)C(=O)N(C)[C@@H](Cc2ccccc2)C(=O)O[C@H](C(C)C)C(=O)N(C)[C@@H]([C@@H](C)CC)C(=O)O[C@H](C(C)C)C(=O)N1C`, the outcome with Hs-578T [3] and in the test on Hs-578T [15] was inactive. For the same compound, in the test with Hs-578T [1], the IC50 turned out to be 8 µM. Further, the inhibition entry in test [10] was “Active”.
Take `CC[C@H](C)[C@H]1C(=O)O[C@H](C(C)C)C(=O)N(C)[C@@H]([C@@H](C)CC)C(=O)O[C@H](C(C)C)C(=O)N(C)[C@@H]([C@@H](C)CC)C(=O)O[C@H](C)C(=O)N1C`: the IC50 in the test on Hs-578T [1] was 13 µM.
With `CC[C@H](C)[C@H]1C(=O)O[C@H](C(C)C)C(=O)N(C)[C@@H]([C@@H](C)CC)C(=O)O[C@H](C(C)C)C(=O)N(C)[C@@H]([C@@H](C)CC)C(=O)OCC(=O)N1C`, in the test on Hs-578T [1], the IC50 came out at 16 µM.
Regarding `CC[C@H](C)[C@H]1C(=O)O[C@H](C(C)C)C(=O)N(C)[C@@H]([C@@H](C)CC)C(=O)O[C@H](C(C)C)C(=O)N(C)[C@@H]([C@@H](C)CC)C(=O)O[C@H](C(C)C)C(=O)N1C`, the inhibition entry in the test with E0771 [2], with EO771 [13] and in the test on EO771 [14] was “inactive” each time. For the same compound, the outcome with Hs-578T [3], in the test on EO771 [7], in the test with 4T1 [12] and in the test on Hs-578T [15] was inactive. Also, the inhibition result (in the test on E0771 [4]; in the test with E0771 [5]; in the test on E0771 [6]; in [10]; in the test on 4T1 [16]; in the test with 4T1 [17]) was “Active” throughout. The IC50 in the test with Hs-578T [1] turned out to be 7.39 µM. Besides, the result in the test on EO771 [11] was Active.
In the case of `C=CCNC1=C2C[C@@H](C)C[C@H](OC)[C@H](O)[C@@H](C)/C=C(\C)[C@H](OC(N)=O)[C@@H](OC)/C=C\C=C(/C)C(=O)NC(=CC1=O)C2=O`, the result with Hs-578T [18] and with Hs-578T [19] was Active.
